Results published in patent US6391915B2, “Propanolamine derivatives” (Fujisawa Pharmaceutical Co., Ltd., priority 1997, dated 2002).

What was measured:
[1] = system: isolated non-pregnant rat uterus; test: Effect on isolated non-pregnant rat uterus (spontaneous contractions, organ bath); type: cell-based; details: 20 min; female SD rat uterus, estradiol-induced oestrus, Locke solution, 37° C., spontaneous contractions observed over 20 minutes
Protocol: Effect on isolated non-pregnant rat uterus
Female SD rats (150-180 g) were used. 48 and 24 hours prior to use, rats were given estradiol (ovahormon benzoat Trademark, Teikoku Hormone Mfg. Co., Ltd.) subcutaneously at a dose of 40 μg/rat to induce oestrus. The animals were killed and uteri were removed. Each strip was placed in an organ bath containing 25 ml Locke solution aerating with 95% O2, 5% CO2 at 37° C. under 1 g tension. Contractions were recorded isometrically. After the spontaneous contractions were of a uniform size, test compound was added to organ bath. The motility was observed over a 20 minutes period. Effect of test compound was calculated by comparing contractions before and after test compound.

[2] = system: isolated rat distal colon; test: Effect on isolated rat distal colon (spontaneous contractions, organ bath); type: cell-based; details: 0.5 h; male SD rat distal colon strip, Tyrode solution, 37° C., spontaneous contractions observed over 30 minutes
Protocol: Effect on isolated rat distal colon:
Male SD rats (180-230 g) were used. Animals were fasted for 24 hours prior to experiment. Distal colon was removed immediately after sacrifice and placed in an organ bath containing 25 ml Tyrode solution aerating with 95% O2, 5% CO2 at 37° C. The strip was mounted under 0.5 g tension and spontaneous contractions were recorded isometrically. After the mobility was of a uniform size, test compound was added to an organ bath and the contractions were observed over a 30 minutes period. Effect of test compound was calculated by comparing contractions before and after test compound.

Row | Structure (SMILES) | melting point | IC50 [1] | IC50 [2]
1 | CCOC(=O)COc1ccc2c(c1)CC(NC[C@H](O)COc1ccccc1)CCC2.Cl (stereo partly shown) | 122 to 128 °C | – | –
2 | C=CCOc1ccccc1OCC(O)CN[C@H]1CCc2ccc(OCC(=O)OCC)cc2C1.O=C(O)C(=O)O (stereo partly shown) | 105 to 109 °C | – | –
3 | CCOC(=O)COc1cccc2c1CCCC(NC[C@H](O)COc1ccccc1)C2.Cl (stereo partly shown) | 43 to 58 °C | – | –
4 | CCOC(=O)COc1cccc2c1CCCC(N(Cc1ccccc1)C[C@H](O)COc1ccccc1)C2 (stereo partly drawn) [Example 1, (2S)-1-[N-benzyl-(1-ethoxycarbonylmethoxy-6,7,8,9-tetrahydro-5H-benzocyclohepten-6-yl)amino]-3-phenoxy-2-propanol] | – | 370 nM | 4.2 nM
5 | O=C([O-])COc1cccc2c1CCCC(NC[C@H](O)COc1ccccc1)C2.[Na+] (stereo partly drawn) [Example 10, sodium [6,7,8,9-tetrahydro-6-[((2S)-2-hydroxy-3-phenoxypropyl)amino]-5H-benzocyclohepten-1-yloxy]acetate] | 65 °C (dec.) | – | –
6 | O=C([O-])COc1ccc2c(c1)CCCC(NC[C@H](O)COc1ccccc1)C2.[Na+] (stereo partly drawn) [Example 11, Sodium [6,7,8,9-tetrahydro-6-[((2S)-2-hydroxy-3-phenoxypropyl)amino]-5H-benzocyclohepten-2-yloxy]acetate] | 166 to 174 °C | – | –
